Data: patent publication US7049336B2, “Method for diagnosing neuronal diseases and for treating primary hemostasis deficiency” (Max-Delbruck-Centrum fur Molekularc Medizin, priority 2000, dated 2006)

Test system: TPH(−/−)-mice
Experiment: Bleeding time (disturbed hemostasis) in TPH(−/−)-mice after intracardial injection
Type: in vivo, mouse
Settings: for Effect on prolonged bleeding time phenotype: TPH(−/−)-mice
Excerpt: FIG. 3. Disturbed hemostasis in TPH(−/−)-mice. • A. Prolonged bleeding times of TPH(−/−)-animals. […] The 5-HT-amounts applied result in 1/10 and the ten-fold of the normal blood concentrations. • C. […] The effect is specific for the TPH(−/−)-mice, whereas control-animals are not affected.

Molecule	Effect on prolonged bleeding time phenotype (intracardial 5-HT-injection, amounts result in 1/10 and the ten-fold of the normal blood concentrations)	Effect on prolonged bleeding time phenotype (intracardial von Willebrand-factor injection)	Effect on bleeding time in control-animals (control-animals, intracardial von Willebrand-factor injection)
NCCc1c[nH]c2ccc(O)cc12 [5-HT, serotonin, reference compound]	Healing of the phenotype		
von Willebrand-factor: commercially available von Willebrand-factor (vWF)		Healing of the phenotype	not affected
